Target: T1, human sPLA2 (Type V) (Homo sapiens, UniProt P39877)
T1 construct: gene PLA2G5
T1 sequence (P39877 21-138): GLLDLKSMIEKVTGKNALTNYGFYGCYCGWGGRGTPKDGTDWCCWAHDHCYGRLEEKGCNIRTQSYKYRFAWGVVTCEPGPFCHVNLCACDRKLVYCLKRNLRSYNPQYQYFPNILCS
Experiment: diheptanoyl thio-PC hydrolysis, DTNB colorimetric
Format: biochemical
Conditions: read-out: sPLA2 (IC50 μg/mL) (converted)
From the text: diheptanoyl thio-PC hydrolysis, DTNB colorimetric on human sPLA2 (Type V)

## CCCCCCCCCCCCCCCCSC[C@H](COP(=O)([O-])OCC[N+](C)(C)C)NC(=O)CCCCCCCCCCCCCCC [Thioetheramide-PC]
  IC50: 2070 nM

— PMC8157459, “Exploring the anti-HIV-1 reverse transcriptase, anti-inflammatory, anti-cancer activities and cytotoxicity of two fermented commercial herbal concoctions sold in Limpopo Province of South Africa” (BMC Complementary Medicine and Therapies, 2021)
